Patent publication US20060069132A1, “Azolecarboxamide herbicides” (priority 2004, published 2006)

What was measured:
wheat = assay: Test B postemergence herbicide test; assay type: in vivo, Triticum aestivum; parameters: key to Wheat plant response rating: 0 = no effect, 100 = complete control; conditions: postemergence
How it was run: (§1)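 Formulated test chemicals went onto postemergence plants measuring 2 to 18 cm, at one to four leaves. For the paddy assay, species had reached two leaves. Scoring took place 13–15 days later by eye, relative to untreated plants, using 0 for no effect up to 100 for full control.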

giant foxtail [1] = assay: Test A pre-/postemergence herbicide test; assay type: in vivo, Setaria faberi
How it was run: (§2)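 Plants are held in greenhouse about ten days after treatment, then compared with untreated controls and scored 0 (no effect) to 100 (complete control). Preemergence dosing is a directed soil spray on sown sandy loam; postemergence dosing is spray to runoff at 2–10 cm height.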

morningglory [2] = assay: Test A pre-/postemergence herbicide test; assay type: in vivo, Ipomoea spp.
How it was run: as §2

barnyardgrass [3] = assay: Test B flooded paddy test; assay type: in vivo, Echinochloa crus-galli; conditions: 1000 g ai/ha, scale 0 to 100 (0 no effect, 100 complete control)
How it was run: (§3)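 Plants grow to 1- to 4-leaf stage (2–18 cm) for postemergence spraying, or to 2-leaf stage for the paddy test. Formulated compound is applied. Greenhouse holding lasts 13–15 days. Response is scored visually relative to controls, 0 no effect to 100 complete control; a dash means no result.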

ducksalad = assay: Test B flooded paddy test; assay type: in vivo, Heteranthera limosa; conditions: 1000 g ai/ha, scale 0 to 100 (0 no effect, 100 complete control)
How it was run: as §3

blackgrass = assay: Test B postemergence herbicide test; assay type: in vivo, Alopecurus myosuroides; conditions: postemergence
How it was run: as §3

lambsquarters = assay: Test B pre-/postemergence herbicide test; assay type: in vivo, Chenopodium album; conditions: for Lambsquarters plant response rating: postemergence
How it was run: (§4)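 Visual rating, 0 (no effect) to 100 (complete control), versus untreated controls after 13–15 d in greenhouse. Pre- and postemergence applications (postemergence plants 2–18 cm, 1–4 leaves); flooded paddy arm at 2-leaf stage. Compounds in non-phytotoxic solvent plus surfactant.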

large crabgrass [4] = assay: Test A pre-/postemergence herbicide test; assay type: in vivo, Digitaria sanguinalis
How it was run: as §2

velvetleaf [5] = assay: Test B pre-/postemergence herbicide test; assay type: in vivo, Abutilon theophrasti; conditions: for Velvetleaf plant response rating: postemergence
How it was run: as §4

[6] = tested on: small flower umbrella sedge; assay: Test B flooded paddy test; assay type: in vivo, Cyperus difformis; conditions: 1000 g ai/ha, scale 0 to 100 (0 no effect, 100 complete control)
How it was run: as §3

wild oat = assay: Test B postemergence herbicide test; assay type: in vivo, Avena fatua; conditions: postemergence
How it was run: as §1

giant foxtail [7] = assay: Test B pre-/postemergence herbicide test; assay type: in vivo, Setaria faberi; conditions: for Foxtail, Giant plant response rating: postemergence
How it was run: as §4

pigweed = assay: Test B pre-/postemergence herbicide test; assay type: in vivo, Amaranthus retroflexus; conditions: for Pigweed plant response rating: postemergence
How it was run: as §4

morningglory [8] = assay: Test B pre-/postemergence herbicide test; assay type: in vivo, Ipomoea coccinea; conditions: for Morningglory plant response rating: postemergence
How it was run: (§5)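 Species tested were Echinochloa crus-galli, Ipomoea coccinea, Xanthium strumarium and Oryza sativa, treated both before emergence and at the 1- to 4-leaf stage; rice and barnyardgrass were also tested under flooding at 2 leaves. Greenhouse incubation lasted 13–15 days before visual 0–100 scoring.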

velvetleaf [9] = assay: Test A pre-/postemergence herbicide test; assay type: in vivo, Abutilon theophrasti
How it was run: as §2

large crabgrass [10] = assay: Test B pre-/postemergence herbicide test; assay type: in vivo, Digitaria sanguinalis; conditions: for Crabgrass, Large plant response rating: postemergence
How it was run: as §4

Surinam grass = assay: Test B pre-/postemergence herbicide test; assay type: in vivo, Urochloa decumbens; conditions: for Surinam Grass plant response rating: postemergence
How it was run: as §4

rice = assay: Test B flooded paddy test; assay type: in vivo, Oryza sativa; conditions: 1000 g ai/ha, scale 0 to 100 (0 no effect, 100 complete control)
How it was run: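 Read-out: visual comparison with controls, scored 0 to 100, where 100 means complete control and 0 no effect. Formulated chemicals were applied postemergence to plants 2–18 cm tall (1- to 4-leaf), or to flooded-paddy plants at the 2-leaf stage, then held 13 to 15 days under glass.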

cocklebur = assay: Test B pre-/postemergence herbicide test; assay type: in vivo, Xanthium strumarium; conditions: for Cocklebur plant response rating: postemergence
How it was run: as §5

redroot pigweed = assay: Test A pre-/postemergence herbicide test; assay type: in vivo, Amaranthus retroflexus
How it was run: as §2

corn = assay: Test B pre-/postemergence herbicide test; assay type: in vivo, Zea mays; conditions: for Corn plant response rating: postemergence
How it was run: as §4

barnyardgrass [11] = assay: Test B pre-/postemergence herbicide test; assay type: in vivo, Echinochloa crus-galli; conditions: for Barnyardgrass plant response rating: postemergence
How it was run: as §5

barnyardgrass [12] = assay: Test A pre-/postemergence herbicide test; assay type: in vivo, Echinochloa crus-galli
How it was run: as §2

[13] = 125 g ai/ha, visual rating, scale 0 (no effect) to 100 (complete control)
[14] = 500 g ai/ha, scale 0 to 100, 0 is no effect, 100 is complete control
[15] = Postemergence, 500 g ai/ha, 0 to 100 scale, 0 no effect, 100 complete control
[16] = Postemergence, 2000 g ai/ha, 0 to 100 scale, 0 no effect, 100 complete control
[17] = Preemergence, 2000 g ai/ha, visual rating, 0 to 100 scale (0 no effect, 100 complete control)
[18] = preemergence, 500 g ai/ha, visual injury, 0 to 100 scale (0 no effect, 100 complete control)
[19] = 125 g ai/ha, 0 is no effect, 100 is complete control, preemergence
[20] = 500 g ai/ha, visual rating, 0 = no effect, 100 = complete control, preemergence

CCOc1ccc(F)c(NC(=O)c2cc(C(C)(C)C)nn2CC)c1 [Compound 348]
Wheat plant response rating (wheat; [13]): 20 | Wheat plant response rating (wheat; [14]): 20 | Foxtail, Giant plant response rating (giant foxtail [1]; [15]): 0 | Plant response rating, Foxtail, Giant (giant foxtail [1]; [16]): 0 | Foxtail, Giant plant response rating (giant foxtail [1]; [17]): 0 | Foxtail, Giant plant response rating (giant foxtail [1]; [18]): 0 | Morningglory plant response rating (morningglory [2]; [15]): 0 | Plant response rating, Morningglory (morningglory [2]; [16]): 0 | Morningglory plant response rating (morningglory [2]; [17]): 0 | Morningglory plant response rating (morningglory [2]; [18]): 0 | Barnyardgrass plant response rating (barnyardgrass [3]): 0 | Ducksalad plant response rating (ducksalad): 0 | Blackgrass plant response rating (blackgrass; [13]): 20 | Blackgrass plant response rating (blackgrass; [14]): 40 | Plant response rating (0 to 100 scale), Lambsquarters (lambsquarters; [19]): 0 | Lambsquarters plant response rating (lambsquarters; [13]): 0 | Plant response rating, Lambsquarters (lambsquarters; [20]): 0 | Lambsquarters plant response rating (lambsquarters; [14]): 0 | Crabgrass, Large plant response rating (large crabgrass [4]; [15]): 0 | Plant response rating, Crabgrass, Large (large crabgrass [4]; [16]): 0 | Crabgrass, Large plant response rating (large crabgrass [4]; [17]): 0 | Crabgrass, Large plant response rating (large crabgrass [4]; [18]): 0 | Plant response rating (0 to 100 scale), Velvetleaf (velvetleaf [5]; [19]): 0 | Velvetleaf plant response rating (velvetleaf [5]; [13]): 0 | Velvetleaf plant response rating (velvetleaf [5]; [14]): 0 | Sedge, Umbrella plant response rating [6]: 0 | Oat, Wild plant response rating (wild oat; [13]): 20 | Oat, Wild plant response rating (wild oat; [14]): 30 | Plant response rating (0 to 100 scale), Foxtail, Giant (giant foxtail [7]; [19]): 0 | Foxtail, Giant plant response rating (giant foxtail [7]; [13]): 0 | Plant response rating, Foxtail, Giant (giant foxtail [7]; [20]): 0 | Foxtail, Giant plant response rating (giant foxtail [7]; [14]): 0 | Plant response rating (0 to 100 scale), Pigweed (pigweed; [19]): 0 | Pigweed plant response rating (pigweed; [13]): 0 | Plant response rating, Pigweed (pigweed; [20]): 0 | Pigweed plant response rating (pigweed; [14]): 0 | Plant response rating (0 to 100 scale), Morningglory (morningglory [8]; [19]): 0 | Morningglory plant response rating (morningglory [8]; [13]): 0 | Plant response rating, Morningglory (morningglory [8]; [20]): 0 | Morningglory plant response rating (morningglory [8]; [14]): 0 | Velvetleaf plant response rating (velvetleaf [9]; [15]): 0 | Plant response rating, Velvetleaf (velvetleaf [9]; [16]): 0 | Velvetleaf plant response rating (velvetleaf [9]; [17]): 0 | Velvetleaf plant response rating (velvetleaf [9]; [18]): 0 | Plant response rating (0 to 100 scale), Crabgrass, Large (large crabgrass [10]; [19]): 0 | Crabgrass, Large plant response rating (large crabgrass [10]; [13]): 0 | Plant response rating, Crabgrass, Large (large crabgrass [10]; [20]): 0 | Crabgrass, Large plant response rating (large crabgrass [10]; [14]): 0 | Plant response rating (0 to 100 scale), Surinam Grass (Surinam grass; [19]): 0 | Surinam Grass plant response rating (Surinam grass; [13]): 0 | Plant response rating, Surinam Grass (Surinam grass; [20]): 0 | Surinam Grass plant response rating (Surinam grass; [14]): 0 | Rice plant response rating (rice): 0 | Plant response rating (0 to 100 scale), Cocklebur (cocklebur; [19]): 0 | Cocklebur plant response rating (cocklebur; [13]): 0 | Plant response rating, Cocklebur (cocklebur; [20]): 0 | Cocklebur plant response rating (cocklebur; [14]): 0 | Pigweed plant response rating (redroot pigweed; [15]): 0 | Plant response rating, Pigweed (redroot pigweed; [16]): 0 | Pigweed plant response rating (redroot pigweed; [17]): 0 | Pigweed plant response rating (redroot pigweed; [18]): 0 | Plant response rating (0 to 100 scale), Corn (corn; [19]): 0 | Corn plant response rating (corn; [13]): 0 | Plant response rating, Corn (corn; [20]): 0 | Corn plant response rating (corn; [14]): 0 | Plant response rating (0 to 100 scale), Barnyardgrass (barnyardgrass [11]; [19]): 0 | Barnyardgrass plant response rating (barnyardgrass [11]; [13]): 0 | Plant response rating, Barnyardgrass (barnyardgrass [11]; [20]): 0 | Barnyardgrass plant response rating (barnyardgrass [11]; [14]): 0 | Barnyardgrass plant response rating (barnyardgrass [12]; [15]): 0 | Plant response rating, Barnyardgrass (barnyardgrass [12]; [16]): 0 | Barnyardgrass plant response rating (barnyardgrass [12]; [17]): 0 | Barnyardgrass plant response rating (barnyardgrass [12]; [18]): 0
